The values that follow come from patent US11780901B2, “Analogues of parathyroid hormone (1-34) that function as agonists of the parathyroid hormone receptor-1 and display modified activity profiles” (Wisconsin Alumni Research Foundation, priority 2013, dated 2023).

Numbering of substitutions follows the chain as printed.

In assay [1] the test system is PTHR1. Nature of the assay: β-arr2 | pEC50.
Assay [2] relates to PTHR1. Briefly: cAMP | pEC50. From the text:
Table printed on a drawing sheet, FIG. 5
Head of the field: cAMP | pEC50
The patent's description of the figure: FIG. 5 depicts graphs and a corresponding table reporting the EC50 and Emax of PTHR1 agonists Ligands 8-13 (SEQ. ID. NOS: 8-13) for cAMP signaling and β-arrestin (βarr) recruitment.
First copying reader's note: Each value cell carries its own ± error; the rows for Ligand 8, 10 and 12 are printed on dark shading.
Where the first naming reader finds the target: description_of_the_figure: EC50 and Emax of PTHR1 agonists Ligands 8-13 (SEQ. ID. NOS: 8-13) for cAMP signaling and β-arrestin (βarr) recruitment.

For assay [3], the system named is PTHR1. Briefly: β-arr1 | pEC50.
The next assay addresses T1, PTHR1-1363Y (Homo sapiens, UniProt Q03431, I363Y).
T1 construct: expressed in transfected cells
T1 sequence (Q03431 27-593 I363Y): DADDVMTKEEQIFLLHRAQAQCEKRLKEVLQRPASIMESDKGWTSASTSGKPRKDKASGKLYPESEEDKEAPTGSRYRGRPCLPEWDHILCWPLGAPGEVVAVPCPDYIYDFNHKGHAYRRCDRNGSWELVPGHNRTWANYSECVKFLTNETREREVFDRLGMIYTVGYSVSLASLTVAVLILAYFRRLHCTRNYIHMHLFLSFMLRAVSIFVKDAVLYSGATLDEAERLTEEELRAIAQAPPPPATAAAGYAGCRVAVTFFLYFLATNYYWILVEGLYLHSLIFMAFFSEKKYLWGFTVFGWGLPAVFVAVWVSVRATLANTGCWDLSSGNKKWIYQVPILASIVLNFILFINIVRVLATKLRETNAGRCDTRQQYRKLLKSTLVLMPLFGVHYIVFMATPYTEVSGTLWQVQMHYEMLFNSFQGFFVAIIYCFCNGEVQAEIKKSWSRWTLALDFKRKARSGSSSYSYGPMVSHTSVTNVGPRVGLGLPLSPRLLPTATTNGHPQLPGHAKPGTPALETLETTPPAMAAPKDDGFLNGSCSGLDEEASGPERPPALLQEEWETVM
Briefly: Activation of PTHR1 mutant PTHR1-1363Y. The settings on record: data not shown. It counts as cell-based. From the text:
(§1) Reciprocal point mutations of PTHR1 were investigated to see if they would enhance the signaling activity of PTHR2-selective agonists.

In assay [4] the target is T2, PTHR1 (Homo sapiens, UniProt Q03431).
T2 sequence (Q03431 27-593): T1 sequence (Q03431 27-593 I363Y) with Y337I
Nature of the assay: PTHR1 activation, cAMP production (GloSensor) in HEK293 cells. Format: cell-based. Further details: expressed in transfected cells. Background: Cyclic AMP is a second messenger, typically raised through Gs and lowered through Gi signalling.

The target in the next assay is T3, PTHR1-L2891 (Homo sapiens, UniProt Q03431, L289I).
T3 construct: expressed in transfected cells
T3 sequence (Q03431 27-593 L289I): T1 sequence (Q03431 27-593 I363Y) with L263I, Y337I
Briefly: Activation of PTHR1 mutant PTHR1-L2891. Format: cell-based. The settings on record: data not shown.
Source text: as §1

The target in assay [5] is T4, PTHR2 (Homo sapiens, UniProt P49190). Nature of the assay: Wash-out assay, duration of PTHR2 activation. It counts as cell-based. Set-up: expressed in transfected cells; host or cells: cells stably expressing PTHR2. The settings on record: for Normalized ligand-off AUC: after washout. The source says:
Duration of activation for PTHR1 and PTHR2. To assess the duration of PTHR1 and PTHR2 activation induced by α/β-peptides 14 and 15, the time course of cAMP production by each receptor was examined after stimulation with an agonist and subsequent washing of the cells to remove unbound peptide (wash-out assay). […] During the initial “ligand-on” phase, cells stably expressing PTHR1 or PTHR2 were stimulated with an agonist concentration corresponding to ˜EC80; the medium contained D-luciferin. […] After the addition of fresh medium containing D-luciferin, the luminescence decay is measured. The area under the “ligand-off” curve (AUC) reflects the duration of signaling, which may be related to residence time of the agonist on the receptor but could have other origins at the molecular level.

For a further assay, the target named is T5, R^0 state of PTHR1 (Homo sapiens, UniProt Q03431).
T5 construct: expressed in transfected cells; host or cells: COS-7, transient; membranes
T5 sequence (Q03431 27-593): T1 sequence (Q03431 27-593 I363Y) with Y337I
Conditions: relative to PTH (1-34); cited from earlier work.

The target of assay [6] is T2, PTHR1. Nature of the assay: Functional selectivity (Gs activation/cAMP production vs βarr recruitment). Set-up: expressed in transfected cells; host or cells: cells stably expressing PTHR1. Conditions: cAMP activation vs βarr1 and βarr2 recruitment, relative to PTH (1-34). It counts as cell-based. On the procedure: More specifically, the initial studies that yielded the compounds disclosed and claimed herein were conducted to determine whether there is a correlation between βarr recruitment and receptor residence time of a PTHR1 agonist. The initial studies were thus conducted in two steps. First, the functional selectivity (Gs activation as indicated by cAMP production vs. βarr recruitment) of several PTHR1 agonists that display substantial differences in signaling duration were evaluated. Second, novel PTHR1 agonists were designed that have high functional selectivity and evaluated the signaling duration of these biased agonists.
The functional selectivity of BA058 is more significant than that of PTHrP. […] LA-PTH is a long-acting PTH analog. […] The middle panels in FIG. 2 are graphs depicting, from left-to-right: βarr1 and βarr2 recruitment, presented as normalized BRET signals (bioluminescence resonance energy transfer) as a function of the log of the peptide concentration, and cAmp activation presented as normalized RLU signals (relative light units) as a function of the log of the peptide concentration. Red=PTH. Orange=LA=LA−PTH. Blue=BA058. Green=PTHrP. (BRET assays are well known and suitable kits are available commercially. See, for example, Promega's “NanoBRET” kits, catalogs nos. N1821 and N1811; Promega Corporation, Fitchburg, Wis.). The table at the bottom of FIG. 2 presents the pEC50 and Emax values for the […] and βarr2 recruitment and cAMP activation. FIG. 3 presents the data for the bias of the activity—either toward βarr recruitment or cAMP activation.
Incorporating (R*)-β^2Leu/(D)-Leu at the 7th position or (R*)-β^2Nle at the 8th position leads to high Gs-biased agonism. […] (D)-Nle is poorly tolerated at the 8th position for both cAMP signaling and βarr recruitment. The top panels in FIG. 5 are graphs depicting, from left-to-right: βarr1 and βarr2 recruitment, presented as normalized BRET signals as a function of the log of the peptide concentration, and cAmp activation presented as normalized RLU signals as a function of the log of the peptide concentration. […]

For assay [7], the target named is T4, PTHR2. Briefly: PTHR2 activation, cAMP production (GloSensor) in HEK293 cells. Further details: expressed in transfected cells. Format: cell-based. Conditions: HEK293. In a few lines:
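HEK293 cells stably expressing PTHR2; receptor activation read as cAMP production by GloSensor luminescence. Dose-response curves fit with a four-parameter sigmoidal equation; data are mean±s.e.m. of four independent measurements.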

T4 sequence (P49190 25-550): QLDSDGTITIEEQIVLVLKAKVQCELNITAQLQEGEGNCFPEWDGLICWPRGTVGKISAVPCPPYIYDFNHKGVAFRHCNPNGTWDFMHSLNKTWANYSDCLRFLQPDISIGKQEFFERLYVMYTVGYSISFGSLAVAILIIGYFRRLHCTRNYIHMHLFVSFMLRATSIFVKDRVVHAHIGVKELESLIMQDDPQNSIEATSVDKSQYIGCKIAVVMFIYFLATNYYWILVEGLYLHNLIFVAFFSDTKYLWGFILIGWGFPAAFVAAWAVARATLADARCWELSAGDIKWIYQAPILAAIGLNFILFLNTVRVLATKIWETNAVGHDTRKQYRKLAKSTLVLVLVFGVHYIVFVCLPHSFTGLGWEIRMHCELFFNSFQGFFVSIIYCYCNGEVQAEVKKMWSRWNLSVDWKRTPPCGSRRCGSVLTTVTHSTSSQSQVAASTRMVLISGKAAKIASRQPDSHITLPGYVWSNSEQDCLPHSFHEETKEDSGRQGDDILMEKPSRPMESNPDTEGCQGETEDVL

“Ligand 13: PTH(1-34) analogue with replaced residue at position 8 (character image) (SVSEIQLXHNLGKHLNSMERVEWLRKKLQDVHNF; non-natural residue at position 8; MOD_RES (8)..(8) X at position 8 is (S*)-Beta-2-Norleucine)”: in the assay on PTHR1 [1], the “β-arr2 | pEC50” value amounted to 8.16 ± 0.09. Also, the “cAMP | pEC50” value with PTHR1 [2] stood at 9.44 ± 0.08. The “β-arr1 | pEC50” value in the assay on PTHR1 [3] is 8.03 ± 0.10.

As for “TIP39-NH2: tuberoinfundibular peptide of 39 residues, naturally PTHR2-selective agonist [reference compound]”, the “agonist activity at PTHR1-1363Y (in words)” value with PTHR1-1363Y is “very weak agonist”. The “PTHR1 agonist activity (in words)” value with PTHR1 [4] (wild-type PTHR1) is recorded as “does not activate”. Besides, the “agonist activity at PTHR1-L2891 (in words)” value in the assay with PTHR1-L2891 is “very weak agonist”. Moreover, the “Normalized ligand-on Emax” value with PTHR2 [5] (PTHR2, agonist at ~EC80, PTH(1-34)-NH2 = 100) is recorded as 99 ± 1.

As for “LA-PTH: long-acting PTH analog (AVAEIQLMHQRAKWIQDARRRAFLHKLIAEIHTAEI; Long-acting (LA)-PTH, a parathyroid hormone analog)”, the “R0 affinity (in words)” value in the assay with R^0 state of PTHR1 is listed as “high R0 affinity”. Also, the “signaling bias / functional selectivity (in words)” value with PTHR1 [6] was “biased toward βarr1 and βarr2 recruitment relative to cAMP activation”.

“SVSEIQL^nLHNLGKHLNSMERVEWLRKKLQDVHNF (SVSEIQLXHNLGKHLNSMERVEWLRKKLQDVHNF; (R)-beta2-Nle at position 8; MOD_RES (8)..(8) X at position 8 is (R)-Beta-2-Norleucine.) [Ligand 11]”: the “β-arr2 | pEC50” value in the assay with PTHR1 [1] came to 8.28 ± 0.02. Also, in the assay on PTHR1 [2], the “cAMP | pEC50” value is reported as 9.03 ± 0.10. Further, the “β-arr1 | pEC50” value in the assay with PTHR1 [3] worked out at 8.33 ± 0.05.

`CC[C@H](C)[C@H](NC(=O)[C@H](CCC(=O)O)NC(=O)[C@H](CO)NC(=O)[C@@H](CNC(=O)[C@@H](N)CO)C(C)C)C(=O)N[C@@H](CCC(N)=O)CC(=O)N[C@@H](CC(C)C)C(=O)N[C@@H](CCSC)C(=O)N[C@@H](Cc1c[nH]cn1)C(=O)N[C@@H](CC(N)=O)C(=O)N[C@@H](CC(C)C)C(=O)NCC(=O)N[C@@H](CCCCN)C(=O)N[C@@H](Cc1c[nH]cn1)C(=O)N[C@@H](CC(C)C)C(=O)N[C@@H](CC(N)=O)C(=O)N[C@@H](CO)C(=O)N[C@@H](CCSC)C(=O)N[C@@H](CCC(=O)O)C(=O)N[C@@H](CCCNC(=N)N)C(=O)N[C@H](C(=O)N[C@@H](CCC(=O)O)C(=O)N[C@@H](Cc1c[nH]c2ccccc12)C(=O)N[C@@H](CC(C)C)C(=O)N[C@@H](CCCNC(=N)N)C(=O)N[C@@H](CCCCN)C(=O)N[C@@H](CCCCN)C(=O)N[C@@H](CC(C)C)C(=O)N[C@@H](CCC(N)=O)C(=O)N[C@@H](CC(=O)O)C(=O)N[C@H](C(=O)N[C@@H](Cc1c[nH]cn1)C(=O)N[C@@H](CC(N)=O)C(=O)N[C@@H](Cc1ccccc1)C(N)=O)C(C)C)C(C)C` [Ligand 15]: on PTHR1-1363Y, the “agonist activity at PTHR1-1363Y (in words)” value was “even less susceptible to activation”. For the same molecule, the values for the maximal effect (Emax) at PTHR1 [4] (HEK293), at PTHR2 [7] and at PTHR2 [5] (read-out: Normalized ligand-on Emax) were 79 ± 6%, 104 ± 2% and 103 ± 1%, respectively. In addition, on PTHR1 [4] (relative to PTH(1-34)-NH2), the “PTHR1 agonist potency decline” value was around 100 fold. For the same molecule, the “Normalized ligand-off AUC” value on PTHR2 [5] (PTHR2, PTH(1-34)-NH2 = 100, listed as α/β-peptide 1) is reported as 197 ± 16; at PTHR2 [5] (PTHR2, PTH(1-34)-NH2 = 100, listed as α/β-peptide 15) it was “more prolonged signaling”.
